The text below walks through data of PMC9492542, “Brain-restricted mTOR inhibition with binary pharmacology” (Nature, 2022).

Read-outs that look alike come from different tables or passages of the source.

In assay [1] the target is T1, FKBP12 (Homo sapiens, UniProt P62942).
T1 construct: His-tag (HRV 3C cleavable) (cleaved yes); made in house; host or cells: Escherichia coli BL21(DE3)
Briefly: Competition fluorescence polarization assay with FITC-rapamycin tracer. The class given is binding. (Polarisation of emitted light reports the rotation of a fluorescent probe.)
Procedure: Compound binding affinity was determined using a competition fluorescence polarization assay. […] The assay buffer was 20 mM HEPES pH 7.5 and 0.01% Triton X-100. […] Data were fitted to a three-parameter sigmoidal curve to derive IC50 values. Ki of the compounds were calculated using a tool provided by S. Wang’s laboratory (http://www.umich.edu/~shaomengwanglab/software/calc_ki/index.html). Data were plotted in GraphPad Prism 9.0.

The target of assay [2] is T2, mTOR (Homo sapiens, UniProt P42345).
T2 construct: We performed in vitro kinase assays with purified mTOR protein; purchased SelectScreen Services (Thermo Fisher Scientific)
T2 sequence (P42345 1360-2549 limits assumed): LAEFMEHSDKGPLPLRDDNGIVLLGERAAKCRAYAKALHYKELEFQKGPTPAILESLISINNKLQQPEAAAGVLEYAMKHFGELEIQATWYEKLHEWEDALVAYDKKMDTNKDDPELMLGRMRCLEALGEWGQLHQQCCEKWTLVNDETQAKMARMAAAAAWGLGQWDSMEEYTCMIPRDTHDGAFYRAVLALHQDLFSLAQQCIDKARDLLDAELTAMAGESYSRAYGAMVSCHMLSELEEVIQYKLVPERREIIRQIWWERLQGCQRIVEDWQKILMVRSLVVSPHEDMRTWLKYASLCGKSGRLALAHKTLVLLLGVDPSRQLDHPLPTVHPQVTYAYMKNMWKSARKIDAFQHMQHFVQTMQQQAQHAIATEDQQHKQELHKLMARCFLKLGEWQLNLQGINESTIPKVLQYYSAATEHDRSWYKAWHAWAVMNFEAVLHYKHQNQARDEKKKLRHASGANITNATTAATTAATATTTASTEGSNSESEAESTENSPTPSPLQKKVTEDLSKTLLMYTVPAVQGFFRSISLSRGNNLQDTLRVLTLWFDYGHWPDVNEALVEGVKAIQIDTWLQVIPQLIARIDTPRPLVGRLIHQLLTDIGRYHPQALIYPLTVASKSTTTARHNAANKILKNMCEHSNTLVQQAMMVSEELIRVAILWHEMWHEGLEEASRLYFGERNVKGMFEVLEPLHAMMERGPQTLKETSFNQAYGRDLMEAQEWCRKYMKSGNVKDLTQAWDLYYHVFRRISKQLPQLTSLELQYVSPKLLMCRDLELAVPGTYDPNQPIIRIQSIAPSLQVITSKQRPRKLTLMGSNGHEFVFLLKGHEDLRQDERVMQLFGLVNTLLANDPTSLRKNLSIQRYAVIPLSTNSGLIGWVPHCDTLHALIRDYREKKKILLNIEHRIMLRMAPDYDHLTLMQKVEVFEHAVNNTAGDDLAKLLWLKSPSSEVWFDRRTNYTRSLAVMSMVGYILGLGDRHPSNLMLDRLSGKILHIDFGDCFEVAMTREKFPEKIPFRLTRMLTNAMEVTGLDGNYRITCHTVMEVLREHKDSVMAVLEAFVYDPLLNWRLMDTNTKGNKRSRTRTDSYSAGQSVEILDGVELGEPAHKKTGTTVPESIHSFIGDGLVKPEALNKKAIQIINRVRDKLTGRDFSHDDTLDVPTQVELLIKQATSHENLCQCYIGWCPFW
Kind of assay: In vitro mTOR kinase inhibition assay (SelectScreen Z'-LYTE), with or without 10 µM FKBP12. Format: biochemical. To be noted: for remaining activity at 4.95 pM / remaining activity at 15.2 pM / remaining activity at 45.7 pM / remaining activity at 0.000137 µM / remaining activity at 0.000412 µM / remaining activity at 0.00123 µM / remaining activity at 0.0111 µM / remaining activity at 0.0333 µM / remaining activity at […]: read-out: residual kinase activity (mTOR); for remaining activity at 0.0333 µM: 33.3 nM drug.
Procedure: In vitro kinase inhibition assays were performed by SelectScreen Services (Thermo Fisher Scientific) using either Z’-LYTE (mTOR, Src, Csk, EGFR, HER2 and HGK), Adapta (LRRK2) or LanthaScreen (DDR2) assay format (standardized protocols can be accessed on the SelectScreen website: https://www.thermofisher.com/us/en/home/products-and-services/services/custom-services/screening-and-profiling-services/selectscreen-profiling-service/selectscreen-kinase-profiling-service.html. When indicated, recombinant FKBP12 protein was added to the assay mixture to a final concentration of 10 µM.

Setting [3] is: recombinant FKBP12, Extended Data Fig. 2, read-out: Kd (FKBP12).

T1 sequence (P62942 whole entry): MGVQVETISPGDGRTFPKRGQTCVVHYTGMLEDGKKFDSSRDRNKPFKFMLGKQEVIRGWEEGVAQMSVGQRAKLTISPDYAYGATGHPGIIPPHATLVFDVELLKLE

What is called Kd is the constant that tells how readily two partners part at equilibrium. Turning to `CCC(C)(C)C(=O)C(=O)N1CCCC[C@H]1C(=O)O[C@H](CCc1ccc(OC)c(OC)c1)c1cccc(NC(=O)CN2CCOCC2)c1` [Compound 01-043], in assay [1] (setting [3]), the Kd worked out at 15 nM.
On the same count and under the same terms, for `CO[C@H]1C[C@@H](C)C/C(C)=C/[C@@H](CCCc2ccccn2)C(=O)C[C@H](O)[C@@H](C)[C@@H](/C(C)=C/[C@@H]2CC[C@@H](O)[C@H](OC)C2)OC(=O)[C@@H]2CCCCN2C(=O)C(=O)[C@]2(O)O[C@H]1[C@@H](OC)C[C@H]2C` [05-084 (06-039)] the value was 3.3 nM.
The same measure, in the same setting: for `CCC(C)(C)C(=O)C(=O)N1CCCC[C@H]1C(=O)O[C@H](CCc1ccc(OC)c(OC)c1)c1cccc(OCCN)c1` [Compound 01-038] the value was 9.4 nM.
`CO[C@H]1C[C@@H](C)C/C(C)=C/[C@@H](CCCC(=O)O)C(=O)C[C@H](O)[C@@H](C)[C@@H](/C(C)=C/[C@@H]2CC[C@@H](O)[C@H](OC)C2)OC(=O)[C@@H]2CCCCN2C(=O)C(=O)[C@]2(O)O[C@H]1[C@@H](OC)C[C@H]2C` [Compound 05-020] returned a Kd in assay [1] of 1.5 nM.
As to `CCC(C)(C)C(=O)C(=O)N1CCCC[C@H]1C(=O)O[C@H](CCc1ccc(OC)c(OC)c1)c1cccc(NC(=O)CNN)c1` [Compound 01-070], the Kd in assay [1] (setting [3]) came out at 21 nM.
On the same count and under the same terms, for `CCC(C)(C)C(=O)C(=O)N1CCCC[C@H]1C(=O)O[C@H](CCc1ccc(OC)c(OC)c1)c1cccc(NCCN)c1` [Compound 02-032] the value was 36 nM.
In turn, `CO[C@H]1C[C@@H](C)C/C(C)=C/[C@@H](CCCC(=O)Nc2ccccn2)C(=O)C[C@H](O)[C@@H](C)[C@@H](/C(C)=C/[C@@H]2CC[C@@H](O)[C@H](OC)C2)OC(=O)[C@@H]2CCCCN2C(=O)C(=O)[C@]2(O)O[C@H]1[C@@H](OC)C[C@H]2C` [Compound 05-064] displayed a Kd in assay [1] of 0.2 nM.
Turning to `CCC(C)(C)C(=O)C(=O)N1CCCC[C@H]1C(=O)O[C@H](CCc1ccc(OC)c(OC)c1)c1cccc(NC(=O)CN)c1` [Compound 01-040], the Kd in assay [1] (setting [3]) came to 21 nM.
Same read-out and setting: for `CO[C@H]1C[C@@H](C)C/C(C)=C/[C@@H](C/C=C/c2cccc[n+]2[O-])C(=O)C[C@H](O)[C@@H](C)[C@@H](/C(C)=C/[C@@H]2CC[C@@H](O)[C@H](OC)C2)OC(=O)[C@@H]2CCCCN2C(=O)C(=O)[C@]2(O)O[C@H]1[C@@H](OC)C[C@H]2C` [Compound 05-060] the value was 0.6 nM.
Take `CO[C@H]1C[C@@H](C)C/C(C)=C/[C@@H](C/C=C/C(=O)O)C(=O)C[C@H](O)[C@@H](C)[C@@H](/C(C)=C/[C@@H]2CC[C@@H](O)[C@H](OC)C2)OC(=O)[C@@H]2CCCCN2C(=O)C(=O)[C@]2(O)O[C@H]1[C@@H](OC)C[C@H]2C` [Compound 05-012]: in assay [1] (setting [3]), the dissociation constant (Kd) is 0.4 nM.
On the same count and under the same terms, for `CCC(C)(C)C(=O)C(=O)N1CCCC[C@H]1C(=O)O[C@H](CCc1ccc(OC)c(OC)c1)c1cccc(NCC(=O)O)c1` [Compound 01-060A] the value was 46 nM.
On the same count and under the same terms, then `CO[C@H]1C[C@@H](C)C/C(C)=C/[C@@H](CCCc2cc[n+]([O-])cc2)C(=O)C[C@H](O)[C@@H](C)[C@@H](/C(C)=C/[C@@H]2CC[C@@H](O)[C@H](OC)C2)OC(=O)[C@@H]2CCCCN2C(=O)C(=O)[C@]2(O)O[C@H]1[C@@H](OC)C[C@H]2C` [Compound 05-092], with 2.5 nM; and `CCC(C)(C)C(=O)C(=O)N1CCCC[C@H]1C(=O)O[C@H](CCc1ccc(OC)c(OC)c1)c1cccc(NC(=O)CN(C)C)c1` [Compound 01-044], with 13 nM.
In the case of `CC(C)n1nc(-c2ccc3oc(N)nc3c2)c2c(N)ncnc21` [MLN128], the “residual kinase activity (mTOR)” value in assay [2] (0.00495 nM drug, +FKBP) came to 101; in assay [2] (0.00495 nM drug, no FKBP), 101; in assay [2] (0.0152 nM drug, +FKBP), 105; in assay [2] (0.0152 nM drug, no FKBP) it was 106; in assay [2] (0.0457 nM drug, +FKBP), 105; in assay [2] (0.0457 nM drug, no FKBP), 104. Besides, the “residual kinase activity (mTOR)” value in assay [2] (0.137 nM drug, +FKBP) came out at 101; in assay [2] (0.412 nM drug, +FKBP), 96; in assay [2] (0.412 nM drug, no FKBP), 98; in assay [2] (1.23 nM drug, +FKBP) it was 83; in assay [2] (1.23 nM drug, no FKBP), 81; in assay [2] (11.1 nM drug, no FKBP), 17. The “residual kinase activity (mTOR)” value worked out at 53 in assay [2] ([…] drug, +FKBP) and 50 in assay [2] ([…] drug, no FKBP). For the same molecule, the remaining activity at 4.95 pM in assay [2] (0.00495 nM drug, +FKBP) was 103%; in assay [2] (0.00495 nM drug, no FKBP), 105%. Also, the remaining activity at 15.2 pM in assay [2] (0.0152 nM drug, +FKBP) amounted to 103%; in assay [2] (0.0152 nM drug, no FKBP) it was 101%. In addition, the remaining activity at 45.7 pM in assay [2] (0.0457 nM drug, +FKBP) stood at 102%; in assay [2] (0.0457 nM drug, no FKBP) it was 102%. Moreover, the remaining activity at 0.000137 µM in assay [2] (0.137 nM drug, +FKBP) came to 106%; in assay [2] (0.137 nM drug, no FKBP) it was 103%. The remaining activity at 0.000412 µM worked out at 97% in assay [2] (0.412 nM drug, +FKBP) and 99% in assay [2] (0.412 nM drug, no FKBP). Besides, the remaining activity at 0.00123 µM in assay [2] (1.23 nM drug, +FKBP) was determined as 84%; in assay [2] (1.23 nM drug, no FKBP) it was 84%. For the same molecule, the remaining activity at 0.0111 µM in assay [2] (11.1 nM drug, +FKBP) was determined as 19%; in assay [2] (11.1 nM drug, no FKBP), 18%. In addition, the remaining activity at 0.0333 µM in assay [2] (+FKBP) and in assay [2] (no FKBP) was 6% each time. Besides, the remaining activity at […] in assay [2] ([…] drug, +FKBP) was 49%; in assay [2] ([…] drug, no FKBP), 48%.
Turning to `CO[C@H]1C[C@@H](C)C/C(C)=C/[C@@H](C/C=C/c2cc[n+]([O-])cc2)C(=O)C[C@H](O)[C@@H](C)[C@@H](/C(C)=C/[C@@H]2CC[C@@H](O)[C@H](OC)C2)OC(=O)[C@@H]2CCCCN2C(=O)C(=O)[C@]2(O)O[C@H]1[C@@H](OC)C[C@H]2C` [Compound 05-061], the Kd in assay [1] (setting [3]) is 0.2 nM.
As to `C=CC(=O)Nc1cccc([C@@H](CCc2ccc(OC)c(OC)c2)OC(=O)[C@@H]2CCCCN2C(=O)C(=O)C(C)(C)CC)c1` [Compound 02-014], in assay [1] (setting [3]), the equilibrium dissociation constant (Kd) stood at 64 nM.
On the same count and under the same terms, for `CCC(C)(C)C(=O)C(=O)N1CCCC[C@H]1C(=O)O[C@H](CCc1ccc(OC)c(OC)c1)c1cccc(NC(=O)Cc2cccc[n+]2[O-])c1` [Compound 03-087] the value was 29 nM; for `CO[C@H]1C[C@@H](C)C/C(C)=C/[C@@H](CCCSCCN)C(=O)C[C@H](O)[C@@H](C)[C@@H](/C(C)=C/[C@@H]2CC[C@@H](O)[C@H](OC)C2)OC(=O)[C@@H]2CCCCN2C(=O)C(=O)[C@]2(O)O[C@H]1[C@@H](OC)C[C@H]2C` [Compound 05-011], 0.7 nM.
Same read-out and setting: for `CCC(C)(C)C(=O)C(=O)N1CCCC[C@H]1C(=O)O[C@H](CCc1ccc(OC)c(OC)c1)c1cccc(NC(=O)CCOCCOCCN)c1` [Compound 03-077] the value was 44 nM; for `CO[C@H]1C[C@@H](C)C/C(C)=C/[C@@H](CCCSCCNC(=O)CNc2ccccn2)C(=O)C[C@H](O)[C@@H](C)[C@@H](/C(C)=C/[C@@H]2CC[C@@H](O)[C@H](OC)C2)OC(=O)[C@@H]2CCCCN2C(=O)C(=O)[C@]2(O)O[C@H]1[C@@H](OC)C[C@H]2C` [Compound 05-028], 2.5 nM; for `CO[C@H]1C[C@@H](C)C/C(C)=C/[C@@H](C/C=C/c2ccccn2)C(=O)C[C@H](O)[C@@H](C)[C@@H](/C(C)=C/[C@@H]2CC[C@@H](O)[C@H](OC)C2)OC(=O)[C@@H]2CCCCN2C(=O)C(=O)[C@]2(O)O[C@H]1[C@@H](OC)C[C@H]2C` [Compound 05-050], 3.6 nM.
On the same count and under the same terms, then `CCC(C)(C)C(=O)C(=O)N1CCCC[C@H]1C(=O)O[C@H](CCc1ccc(OC)c(OC)c1)c1cccc(N(CC(=O)O)CC(=O)O)c1` [Compound 01-060B], with 75 nM.
In the case of `CO[C@H]1C[C@@H](C)C/C(C)=C/[C@@H](CCCc2ccncc2)C(=O)C[C@H](O)[C@@H](C)[C@@H](/C(C)=C/[C@@H]2CC[C@@H](O)[C@H](OC)C2)OC(=O)[C@@H]2CCCCN2C(=O)C(=O)[C@]2(O)O[C@H]1[C@@H](OC)C[C@H]2C` [Compound 05-085], in assay [1], the equilibrium dissociation constant (Kd) is 1.5 nM.
Regarding `CCC(C)(C)C(=O)C(=O)N1CCCC[C@H]1C(=O)O[C@H](CCc1ccc(OC)c(OC)c1)c1cccc(NC(=O)CN=[N+]=[N-])c1` [Compound 02-096], the Kd in assay [1] (setting [3]) worked out at 6 nM.
Turning to `CO[C@H]1C[C@@H](C)C/C(C)=C/[C@@H](CCCSC[C@H](N)C(=O)O)C(=O)C[C@H](O)[C@@H](C)[C@@H](/C(C)=C/[C@@H]2CC[C@@H](O)[C@H](OC)C2)OC(=O)[C@@H]2CCCCN2C(=O)C(=O)[C@]2(O)O[C@H]1[C@@H](OC)C[C@H]2C` [Compound 05-037], in assay [1], the affinity, expressed as Kd, was 8.7 nM.
In the case of `CCC(C)(C)C(=O)C(=O)N1CCCC[C@H]1C(=O)O[C@H](CCc1ccc(OC)c(OC)c1)c1cccc(NC(=O)CS)c1` [Compound 02-055], the Kd in assay [1] (setting [3]) is 64 nM.
As to `CCC(C)(C)C(=O)C(=O)N1CCCC[C@H]1C(=O)O[C@H](CCc1ccc(OC)c(OC)c1)c1cccc(OCC(=O)O)c1` [Compound 01-041], in assay [1] (setting [3]), the dissociation constant Kd is 38 nM.
Same read-out and setting: then `CCC(C)(C)C(=O)C(=O)N1CCCC[C@H]1C(=O)O[C@H](CCc1ccc(OC)c(OC)c1)c1cccc(NC(=O)CNC(=N)N)c1` [Compound 01-065], with 38 nM.
